# Residues, ends and D or L forms follow the SMILES beside them. *: point of attachment. Cbz = O=C(OCc1ccccc1)*; CH2F = FC*
# Legend:
# [1] = test system: endogenous OAT in HeLa cells; experiment: OAT siRNA knock-down in HeLa cells; assay type: cell-based, human; details: added to OAT siRNA-treated HeLa cells
# Source text: OAT is well characterized as a mitochondrial matrix enzyme. In this context it regulates flux through the urea cycle and couples, indirectly, proline biosynthesis to the availability of fumarate for consumption in the TCA cycle (19). For reasons not completely understood, mutations in the human enzyme are associated with a progressive degeneration of the retina and choroid termed gyrate atrophy (20).
# HeLa cell = HeLa cell growth inhibition; assay type: cell-based, human
# Procedure: Biotin conjugate 3 (Table 1) was prepared to facilitate isolation of diazonamide binding proteins using avidin-based affinity chromatography. […] As a negative control, seco analog 5 was synthesized:
# This molecule is identical to 3 except it lacks the biaryl linkage connecting carbons 16 and 18 (Table 1).
# HeLa cells = experiment: Mitotic arrest and spindle phenotype in HeLa cells; assay type: cell-based, human; details: 30 nM, eighteen hours following dosage
# Source text: Suitable spindle assembly systems include Xenopus egg extracts, Hela cells, COS-7 cells, CHO cells, U20S cells, etc. An agent-biased spindle assembly is a spindle-assembly that has a phenotype that differs from that of the first spindle assembly (i.e. the normal control). […] The spindle phenotypes are typically visualized by fixing the cells or cell extracts and differentially staining the α-tubulin and DNA [5]. Spindle assembly can also be visualized by live cell imaging.
# Biotin conjugate 3 (Table 1) was prepared to facilitate isolation of diazonamide binding proteins using avidin-based affinity chromatography. […] As a negative control, seco analog 5 was synthesized: […]
# [2] = test system: wild-type human fibroblasts; experiment: Mitotic arrest (cell rounding) in wild-type human fibroblasts; assay type: cell-based; details: 10 nM for 30 hrs
# Procedure: (§1) The OAT locus has been examined in fibroblasts derived from GA patients wherein various point and nonsense mutations have been characterized (20). Such cell lines offered another means to solidify the connection between OAT, diazonamide, and its anti-mitotic properties. When wild-type human fibroblasts were exposed to 10 nM diazonamide A for 30 hrs, >60% of cells rounded up—indicative in this case of mitotic arrest. […] Among the mutant cell lines examined only R154L and R180T variants express OAT protein.
# [3] = test system: fibroblast lines derived from gyrate atrophy patients harboring OAT mutations; experiment: Mitotic arrest (cell rounding) in gyrate atrophy patient fibroblasts; assay type: cell-based, human; details: OAT mutations: initiator methionine, R154L, R180T, W391 nonsense
# Procedure: as §1
# BS-C-1 and PTK2 culture = experiment: Interphase microtubules in BS-C-1 and PTK2 culture; assay type: cell-based; details: at GI50 concentrations
# Procedure: COMPARE pattern analysis of observed cytotoxic/cytostatic activities implied a mechanistic correlation between diazonamide and microtubule de-polymerizing agents such as maytansine and vinblastine. […] To test this possibility, a synthetic variant of diazonamide A (2, Table 1) was prepared.
# [4] = test system: cultured human cancer cell; details: cited from earlier work
# tubulin = details: cited from earlier work
# OAT enzymatic activity = molecular target: T1, OAT enzymatic activity (Mus musculus, UniProt P29758); experiment: Ornithine aminotransferase activity in crude mitochondrial extracts from mouse liver; assay type: biochemical; details: increasing concentrations
# T1 construct: Crude mitochondrial extracts from mouse liver were assayed for ornithine aminotransferase activity; from tissue; host or cells: mouse liver, crude mitochondrial extract
# T1 sequence (P29758 26-439): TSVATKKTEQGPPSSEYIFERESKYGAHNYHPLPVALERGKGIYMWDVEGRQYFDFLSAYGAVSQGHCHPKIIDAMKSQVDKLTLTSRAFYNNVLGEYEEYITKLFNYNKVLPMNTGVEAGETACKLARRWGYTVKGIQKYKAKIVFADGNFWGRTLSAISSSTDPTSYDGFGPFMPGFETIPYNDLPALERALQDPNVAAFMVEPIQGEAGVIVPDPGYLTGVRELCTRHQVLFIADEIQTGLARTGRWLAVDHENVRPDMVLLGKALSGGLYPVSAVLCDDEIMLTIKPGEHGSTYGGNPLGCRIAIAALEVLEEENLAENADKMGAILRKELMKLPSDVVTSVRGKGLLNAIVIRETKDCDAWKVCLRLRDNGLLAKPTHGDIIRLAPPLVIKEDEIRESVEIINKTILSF
# Procedure: To determine if diazonamide binds to OAT directly, recombinant His-tagged hOAT was produced in bacteria, purified, and incubated with compound 3-coated avidin agarose. […] We next examined the impact of diazonamide binding on OAT enzymatic activity. Crude mitochondrial extracts from mouse liver were assayed for ornithine aminotransferase activity in the presence of increasing concentrations of compounds 2 or 3.
structure (smiles),measurement,setting,value
N=C(N)NCCC[C@H](N)C(=O)O [L-arginine],blocking of cell death in OAT siRNA-treated cells,[1],failed to attenuate the rate of death or restore normal spindle assembly
"CC(C)[C@H](O)C(=O)N[C@H]1Cc2ccc3c(c2)[C@]24C5=C(N=C(O5)[C@H](C(C)C)NC1=O)c1nc(Cl)c(o1)-c1c(Cl)[nH]c5cccc(c15)-c1cccc2c1N[C@@H]4O3 [Compound 1, (-)-diazonamide A]",GI50,HeLa cell,5 nM
same,spindle phenotype,HeLa cells,multi-pole spindle phenotype with misaligned chromosomes
same,cells rounded up (mitotic arrest),[2],> 60%
same,response of gyrate atrophy fibroblast lines,[3],resistant to the compound
same,impact on interphase microtubules,BS-C-1 and PTK2 culture,little impact on interphase microtubules
same,concentration inhibiting cultured human cancer cell growth,[4],low nanomolar concentrations
same,competition with vinca alkaloids or nocadazole for tubulin binding,tubulin,did not compete
same,purified tubulin polymerization in vitro,tubulin,inhibit purified tubulin polymerization in vitro
C#CC(N)CCC(=O)O (centres unmarked) [4-aminohex-5-ynoic acid],inhibition of conversion of L-ornithine to L-Δ1-pyrroline-5-carboxylic acid,OAT enzymatic activity,suppressed the activity in a dose dependent manner
CC(NC(=O)C(NC(=O)OCc1ccccc1)C(C)C)C(=O)NC(CC(=O)O)C(=O)CF (stereo not drawn) [Z-VAD] (Cbz-Val-Ala-Asp-CH2F; configuration not given here),blocking of cell death in OAT siRNA-treated cells,[1],not blocked

# From patent US7622289B2, “Ornithine aminotransferase (OAT): a target for anticancer drugs” (Board of Regents, The University of Texas System, priority 2006, dated 2009)
